# Measurements: US10966954B2, “Electrophilically enhanced phenolic compounds for treating inflammatory related diseases and disorders” (priority 2016, dated 2021)
# Key:
# Assay in all cases: microbe, parasite or virus in culture
# Assay type in all cases: cell-based
# A/TX/36/91 (H1N1) = details: Influenza A virus, H1N1, MDCK, 168 h
# A/Perth/265/09 (H1N1) = details: Influenza A virus, H1N1, MDCK, 168 h
# A/HK/1/68 (H3N2) = details: Influenza A virus, H3N2, MDCK, 168 h
structure (smiles),measurement,setting,value
CC(=O)N[C@H]1[C@H]([C@H](O)[C@H](O)CO)OC(C(=O)O)=C[C@@H]1N=C(N)N [Zanamivir],EC50,A/TX/36/91 (H1N1),731 nM
same,EC50,A/Perth/265/09 (H1N1),1520 nM
same,EC50,A/HK/1/68 (H3N2),27.7 µM
